From the METLIN SMRT retention time set (Domingo-Almenara et al. 2019) come the findings set out here.

A short description of this data set: gradient 5% acetonitrile 3 min, to 50% in 2 min, to 85% in 15 min, held 3 min, 100 µL/min. The note with it: column: Zorbax Extend-C18 2.1 x 50 mm; eluents: water / acetonitrile, 0.1% formic acid. In short, it runs like this: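 The mobile phases were water and acetonitrile, each with 0.1% formic acid, pumped at 100 μL/min through a Zorbax Extend-C18 column (2.1 × 50 mm, 1.8 μm). Pure standards were injected as mixtures of ~100 molecules and detected by a quadrupole time-of-flight mass spectrometer in positive and negative ionization mode. Retention time came from computationally picked adduct peaks, each inspected by hand.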
`COc1ccc(-c2c(C)noc2NC(C)=O)cc1S(=O)(=O)Nc1ccc(C)cc1C` gave an RP-LC retention time of 804 s.

Molecule `CCOc1ccc(S(=O)(=O)N2CCCC(C(=O)NCc3ccccn3)C2)cc1` (centres undefined) had an RP-LC retention time of 623 s.

The molecule `COC(=O)c1cc(Cl)c(NC(=O)C(C)C)cc1OC` registered an RP-LC retention time of 767 s.

In the case of `CCN1C(=O)COc2ccc(-c3csc(NC(=O)c4ccccc4)n3)cc21`, the RP-LC retention time was 952 s.

Turning to `CC(C)NC(=O)C1CCN(c2nc3ccc(-c4ccccc4)nc3s2)CC1`, the RP-LC retention time was found to be 927 s.

The molecule `CCC(C)n1c(=O)c2ccccc2n(Cc2nc(-c3cc(OC)cc(OC)c3)no2)c1=O` (centres undefined) gave an RP-LC retention time of 1180 s.

Regarding `CCS(=O)(=O)N1CC(=O)N(c2ccc(C)cc2)C(C)(C(=O)NCc2ccc(F)cc2)C1` (centres undefined), the RP-LC retention time was 834 s.

For the molecule `OC[C@@H]1CN(Cc2ccco2)C[C@H]1c1nc(-c2cccnc2)no1`, the RP-LC retention time was 557 s.

Regarding `COc1ccc(C)cc1NC1=NS(=O)(=O)c2ccccc21`, the RP-LC retention time was determined as 852 s.

Take `CCCOc1nc2ccccc2nc1N1CCCC(C(=O)Nc2cc(Cl)ccc2OC)C1` (centres undefined): the RP-LC retention time came out at 611 s.

Turning to `COc1ccc2c(c1)C1(CCN(S(=O)(=O)c3ccc(F)cc3)C1)C(=O)N2` (centres undefined), the RP-LC retention time turned out to be 820 s.

For the molecule `Cc1cc(C(=O)N2CCCCC2)c2c(=O)n(Cc3ccc(Cl)cc3)c(=O)n(C)c2n1`, the RP-LC retention time amounted to 1020 s.

`O=c1cc(-c2ccncc2)nc(N2CCCC2)n1Cc1cccc(F)c1` registered an RP-LC retention time of 1230 s.

In the case of `O=C(C1CCN(c2nc3ccc(-c4cccc(F)c4)nc3s2)CC1)N1CCOCC1`, the RP-LC retention time is 892 s.

With `CCCS(=O)(=O)N1CCC(N2C[C@H](Oc3ccccc3)[C@@H]2c2ccncc2)CC1`, the RP-LC retention time came to 685 s.

In turn, `CCn1cnc2ccc(-c3noc(Cc4ccc(F)cc4)n3)cc21` had an RP-LC retention time of 742 s.

Regarding `O=C(O)c1cccc(Nc2c(-c3ccccc3)nc3cnccn23)c1`, the RP-LC retention time is 697 s.

Consider `Cc1nc([C@@H]2CCCN2C(=O)CCc2ccccc2)n[nH]1`, for which the RP-LC retention time was determined as 634 s.

Molecule `CCN(C(=O)C1CCCN(c2ncnc3c2nc2n3CCCCC2)C1)c1cccc(Cl)c1` (centres undefined) yielded an RP-LC retention time of 912 s.

Take `c1ccc(N2CCN(CCCOc3ccc4c(c3)OCO4)CC2)cc1`: the RP-LC retention time is 770 s.

For the molecule `CCc1oc2cc(S(=O)(=O)Nc3ccc(S(=O)(=O)Nc4nccs4)cc3)ccc2c1C(=O)c1cc(Br)c(O)c(Br)c1`, the RP-LC retention time was found to be 895 s.

`CC(C)Cn1c(=O)c(C(=O)NCCc2cccnc2)nc2cccnc21`: the RP-LC retention time amounted to 635 s.

For the molecule `CCc1ccc(NC(=O)Cn2nc3nc(N4CCCC4)ccn3c2=O)cc1`, the RP-LC retention time turned out to be 678 s.

`Cc1ccc(C2Cn3nnc(-c4nc(-c5ccccc5F)no4)c3CO2)c(C)c1` (centres undefined) yielded an RP-LC retention time of 1230 s.

`COc1cc(SC)ccc1C(=O)NCCc1c[nH]c2ccc(C)cc12` had an RP-LC retention time of 953 s.

Regarding `COc1ccc(CCNC(=O)C2CCN(S(=O)(=O)c3cn(C(C)C)cn3)CC2)cc1OC`, the RP-LC retention time was 689 s.

In turn, `COc1cccc(C2Cn3nnc(-c4nc(-c5ccccc5Cl)no4)c3CO2)c1` (centres undefined) came in with an RP-LC retention time of 1150 s.

Consider `Cc1ccc(CN2C(=O)NC3(CCN(C(=O)c4cccs4)CC3)C2=O)cc1`, for which the RP-LC retention time came out at 820 s.

For `Cc1nc(-c2cc(S(=O)(=O)N3CCC(C(=O)NCc4ccco4)CC3)c(C)s2)no1`, the RP-LC retention time was 837 s.

On to `O=C(C1CCN(c2ncnc3c2sc2ncccc23)CC1)N1CCN(c2ccccn2)CC1`, for which the RP-LC retention time turned out to be 586 s.

Regarding `COc1ccc(C(=O)N2CC(n3cc(COCC4CC4)nn3)C2)cc1`, the RP-LC retention time is 712 s.

As to `CCCCN(CCCC)c1nc(-c2ccncc2)nc2ccccc12`, the RP-LC retention time worked out at 992 s.

Molecule `COC(=O)c1ccccc1Nc1c(-c2ccc(Br)cc2)nc2cnccn12` yielded an RP-LC retention time of 1130 s.

`COc1ccc(C)cc1NC(=O)N1CCC2(CC1)NC(=O)c1cccc(Cl)c1N2` came in with an RP-LC retention time of 819 s.

Turning to `CCc1nc(-c2csc(S(=O)(=O)N3CCCC(C(=O)Nc4ccc(Cl)cc4F)C3)c2)no1` (centres undefined), the RP-LC retention time is 1150 s.

Molecule `O=C(Cc1cccc(F)c1)N1CCCC1c1nc(-c2ccccc2Cl)no1` (centres undefined) had an RP-LC retention time of 1200 s.

In turn, `Cc1ccc(NC(=O)C2CCCN(c3cc(=O)n(C)c(=O)n3C)C2)cc1` (centres undefined) returned an RP-LC retention time of 725 s.

`COc1ccccc1NC(=O)C1CCCN1S(=O)(=O)c1cc2c(cc1Cl)NC(=O)CO2` (centres undefined) displayed an RP-LC retention time of 805 s.

The molecule `Cc1noc2nc(C)n(CC(=O)Nc3ccccc3F)c(=O)c12` gave an RP-LC retention time of 752 s.

`Cc1nc(N2CCOCC2)c2c(C(=O)Nc3ccc(Br)cc3F)c(C)oc2n1` yielded an RP-LC retention time of 976 s.

On to `CCc1noc(NC(C)=O)c1-c1ccc(OC)c(S(=O)(=O)Nc2ccc(C#N)cc2)c1`, for which the RP-LC retention time came out at 735 s.

Consider `CC(C)c1nc(NC(=O)Cn2nc3c(cc2=O)CCCCC3)n[nH]1`, for which the RP-LC retention time amounted to 632 s.

With `C[C@@]1(c2cc(-c3cncnc3)c(F)cc2F)CCSC(N)=N1`, the RP-LC retention time came to 654 s.

`CCOC(=O)c1cn(CC(=O)NCCC(C)C)c2nc(C)ccc2c1=O` showed an RP-LC retention time of 723 s.

With `COc1ccc(-c2ccnc3nc(C(C)C)nn23)cc1`, the RP-LC retention time was determined as 845 s.

The molecule `Cc1nn(-c2ccccc2)c2c1N(CC(=O)N1CCN(c3ccc(F)cc3)CC1)C(=O)CS2` yielded an RP-LC retention time of 915 s.

`CCOC(=O)c1c(C)[nH]c(C(=O)CC(=O)OC)c1C` returned an RP-LC retention time of 696 s.

In turn, `O=C(CSc1nnc(NC(=O)COc2ccc(Cl)cc2)s1)NCc1ccco1` displayed an RP-LC retention time of 768 s.

`O=C(CCn1cnc2cc(-c3noc(-c4cncc(Br)c4)n3)ccc21)N1CCCCCC1` had an RP-LC retention time of 814 s.

As to `COc1ccc(S(=O)(=O)N2CCc3nc(CNC(=O)C4CCC4)n(C)c3C2)cc1`, the RP-LC retention time was 628 s.

With `COc1cccc(N2CCN(C(=O)C3CC(=O)N(c4n[nH]c5cccc(F)c45)C3)CC2)c1` (centres undefined), the RP-LC retention time was determined as 742 s.

The molecule `CCOc1ccccc1-c1noc(Cn2cnc3c(cnn3-c3ccccc3)c2=O)n1` yielded an RP-LC retention time of 990 s.

In turn, `CC(Oc1cccc(Cl)c1)C(=O)N1CCn2cnnc2C1` (centres undefined) displayed an RP-LC retention time of 622 s.

In turn, `O=C(Cn1nc2nc(N3CCCC3)ccn2c1=O)NCCc1ccccc1` showed an RP-LC retention time of 947 s.

`O=C(Cn1cnc2ccccc21)NCCCn1ccc2ccccc21` registered an RP-LC retention time of 605 s.

On to `COc1ccc(OC)c(CNC(=O)Cc2nnc(-c3ccccn3)o2)c1`, for which the RP-LC retention time turned out to be 687 s.

Molecule `COCCN1C(=O)CCC2(C(=O)Nc3cc(OC)cc(OC)c3)CCCC=C12` (centres undefined) had an RP-LC retention time of 763 s.

Molecule `O=C(Cc1csc2nc(-c3ccccc3)cn12)Nc1ccccc1F` yielded an RP-LC retention time of 764 s.

Molecule `O=C(Nc1ccc2c(c1)OCO2)C1(c2ccc(F)cc2)CC1` yielded an RP-LC retention time of 877 s.

For `CCSc1nc2ccc(NS(=O)(=O)c3ccc(F)cc3Cl)cc2s1`, the RP-LC retention time was determined as 1110 s.

In the case of `COCCN1CC2(CCN(S(=O)(=O)c3cc(F)cc(F)c3)CC2)C1c1ccccc1` (centres undefined), the RP-LC retention time stood at 718 s.

Consider `O=C(COc1ccc(Cl)cc1Cl)Nc1ccc2c(c1)N(C(=O)C1CC1)CC2`, for which the RP-LC retention time was 987 s.

`CCc1ccc(Nc2nc(C(=O)NC3CCCCC3)nc3ccccc23)cc1` showed an RP-LC retention time of 995 s.

`O=C(Cn1cnc2c(sc3nc(-c4ccccc4)ccc32)c1=O)Nc1ccc2c(c1)OCCO2`: the RP-LC retention time amounted to 948 s.

In the case of `CCN1CCCC1CN(CC(=O)N1CCNCC1)S(=O)(=O)c1cc(C)c(C)cc1C` (centres undefined), the RP-LC retention time turned out to be 588 s.

`COc1cc(-c2noc(Cn3ncn4nc(-c5ccccc5Cl)cc4c3=O)n2)cc(OC)c1OC` came in with an RP-LC retention time of 1060 s.

For `CC(CNC(=O)c1cc2n(n1)CC(C)(C(=O)NC1CCCC1)N(C)C2=O)c1ccccc1` (centres undefined), the RP-LC retention time was determined as 884 s.

Consider `Cn1nc2n(c1=O)CCC(NC(=O)c1n[nH]c3c1CC(C(C)(C)C)CC3)CC2` (centres undefined), for which the RP-LC retention time was found to be 724 s.

With `Cc1cc(C2CCCN2C(=O)Nc2cc(Cl)ccc2C)no1` (centres undefined), the RP-LC retention time amounted to 893 s.

Turning to `O=C(NCC1CCOCC1)Nc1cccc(F)c1`, the RP-LC retention time is 698 s.

The molecule `Cc1ncc2c(n1)C[C@@H]1CC[C@H]2N1C(=O)Nc1ccc2c(c1)OCCO2` registered an RP-LC retention time of 630 s.

With `CCOc1ccc(-c2noc(Cn3cnc4c(cnn4-c4ccc(OC)cc4)c3=O)n2)cc1OC`, the RP-LC retention time was 973 s.

`O=C(Nc1ccc2c(c1)CN(C(=O)c1cccs1)CC2)c1ccccc1C(F)(F)F` returned an RP-LC retention time of 821 s.

As for `Cc1ccc2c(c1)OCC(=O)N2Cc1nc(-c2cccc(Br)c2)no1`, the RP-LC retention time amounted to 1180 s.

As for `CN(C)C[C@@H]1CN(Cc2ccccc2)C[C@H]1NS(=O)(=O)c1cccnc1`, the RP-LC retention time was determined as 537 s.

Consider `CCCNC(=O)N(C1CCOCC1)C1CCN(S(=O)(=O)c2cc(F)ccc2C)CC1`, for which the RP-LC retention time turned out to be 897 s.

The molecule `O=C(Nc1ccc(-c2nc3ccccc3o2)cc1)Nc1c(F)cccc1F` came in with an RP-LC retention time of 870 s.

Consider `CC(Cc1ccco1)NC(=O)C1CC(=O)N(c2ccc(F)cc2)C1` (centres undefined), for which the RP-LC retention time came to 714 s.

On to `O=C(CCl)NC1(C(=O)O)CCCC1`, for which the RP-LC retention time came to 661 s.
